The series in a line: Intraperitoneal administration to intact rats: accumulation of metals in liver and kidney tissues. Format: in vivo. Conditions: day 1 and day 7 after drug withdrawal, 3750 μg of zinc per kg intraperitoneally, 7 injections.

Description: Animals are placed in cages, 4 per cage, with free access to food/water. […] Administration is performed every other day, in the amount of 7 injections per animal (intraperitoneal method of drug administration). […] After the last injection, a half of the animals are maintained on hunger (for 12 hours) with free access to water. Upon expiration of this time period, the animals are taken out of the experiment. The second half of the animals continues to have free access to food/water for a further 7 days. On day 6 after the last injection, the animals are maintained on hunger (for 12 hours) with free access to water. Upon expiration of this time period, the animals are taken out of the experiment.
The total kidney, liver and muscle homogenates were prepared as follows. Organ excision and homogenization were carried out at a temperature of 1-4° C. […] The volume of the used buffer in ml was 5 times larger than the mass of isolated organs in grams. The isolated liver was perfused with chilled saline (0.9% NaCl) via the portal vein using a syringe. The minced liver was transferred to a homogenizer with a finely ground Teflon pestle and homogenized in chilled buffer. An isolated pair of kidneys was perfused with chilled saline, released from adipose tissue and minced with scissors. […]

Turning to `CC(=O)[O-].CC(=O)[O-].[Zn+2]` [Zn acetate, Zinc acetate], the “Zinc level in liver and kidney tissues” value is on record as “significantly increased”.

The values above are taken from patent publication US20210187016A1, “METHOD OF TREATING NONALCOHOLIC STEATOHEPATITIS” (Vector Vitale IP LLC, priority 2019, published 2021).
